Like-named read-outs stand apart in the source and are kept apart here. Blank lines part the entries; values can stand above or below the molecule they belong to.
Columns and labels:
ALK = molecular target: T1, ALK (Homo sapiens, UniProt Q9UM73); assay: ALK Kinase Assay (ELISA/TRF, PLC-γ substrate); format: biochemical; conditions: read-out: ALK Potency
T1 construct: host or cells: baculovirus expression system
Outline: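 Read-out is time-resolved fluorescence from a Eu-N1-labeled PT66 antibody that binds phosphorylated PLC-γ, the substrate coated at 10 μg/mL in TBS. ALK at 30 ng/ml starts the reaction, which runs 15 minutes at 37° C.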

JAK2 = molecular target: T2, JAK2 (Homo sapiens, UniProt O60674); assay: Recombinant Human JAK2 Kinase Assay (TRF); format: biochemical; conditions: read-out: JAK2 Potency
T2 construct: host or cells: baculovirus expression system
T2 sequence (O60674 whole entry): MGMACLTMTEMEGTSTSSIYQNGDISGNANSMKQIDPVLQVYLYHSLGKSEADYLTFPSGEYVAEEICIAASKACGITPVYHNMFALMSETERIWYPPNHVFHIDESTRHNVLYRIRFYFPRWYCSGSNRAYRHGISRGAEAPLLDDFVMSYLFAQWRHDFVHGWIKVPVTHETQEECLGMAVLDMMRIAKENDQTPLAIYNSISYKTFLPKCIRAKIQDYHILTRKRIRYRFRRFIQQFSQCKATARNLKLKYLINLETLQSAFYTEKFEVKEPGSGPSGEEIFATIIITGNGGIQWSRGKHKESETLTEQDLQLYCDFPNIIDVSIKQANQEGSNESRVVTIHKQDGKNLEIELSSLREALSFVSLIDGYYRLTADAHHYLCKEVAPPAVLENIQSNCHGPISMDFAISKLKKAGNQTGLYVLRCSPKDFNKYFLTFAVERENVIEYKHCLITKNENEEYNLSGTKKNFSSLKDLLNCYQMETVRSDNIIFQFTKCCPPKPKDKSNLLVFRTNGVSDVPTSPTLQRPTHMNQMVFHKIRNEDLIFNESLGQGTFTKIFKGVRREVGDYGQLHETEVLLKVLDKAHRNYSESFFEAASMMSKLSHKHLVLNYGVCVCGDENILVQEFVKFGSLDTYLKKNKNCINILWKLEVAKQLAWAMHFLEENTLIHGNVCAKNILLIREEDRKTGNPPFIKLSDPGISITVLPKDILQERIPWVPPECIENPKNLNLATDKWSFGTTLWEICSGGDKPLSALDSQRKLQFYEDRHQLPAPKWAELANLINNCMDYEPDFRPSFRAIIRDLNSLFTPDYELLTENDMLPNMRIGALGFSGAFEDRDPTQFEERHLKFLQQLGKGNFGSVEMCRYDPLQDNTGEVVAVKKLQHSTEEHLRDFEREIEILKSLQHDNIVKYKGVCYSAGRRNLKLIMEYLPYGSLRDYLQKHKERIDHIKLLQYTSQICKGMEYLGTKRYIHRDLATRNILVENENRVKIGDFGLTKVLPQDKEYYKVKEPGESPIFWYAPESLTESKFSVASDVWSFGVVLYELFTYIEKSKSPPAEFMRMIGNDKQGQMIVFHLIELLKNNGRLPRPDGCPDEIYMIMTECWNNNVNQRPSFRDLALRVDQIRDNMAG
Outline: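 Baculovirus-expressed JAK2 (15 ng/ml) phosphorylated a biotinylated 15-mer peptide captured on Neutravidin, in 20 mM HEPES pH 7.2, 0.2 μM ATP, 1 mM MnCl2, 0.1% BSA, 2.5% DMSO final, 20 min at room temperature. Phosphoproduct detected by time-resolved fluorescence with Eu-N1-labelled PY100 antibody.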

[1] = ALK kinase inhibition, 1 μM ATP
[2] = JAK2 kinase inhibition, 0.2 μM ATP

T1 sequence (Q9UM73 19-1620): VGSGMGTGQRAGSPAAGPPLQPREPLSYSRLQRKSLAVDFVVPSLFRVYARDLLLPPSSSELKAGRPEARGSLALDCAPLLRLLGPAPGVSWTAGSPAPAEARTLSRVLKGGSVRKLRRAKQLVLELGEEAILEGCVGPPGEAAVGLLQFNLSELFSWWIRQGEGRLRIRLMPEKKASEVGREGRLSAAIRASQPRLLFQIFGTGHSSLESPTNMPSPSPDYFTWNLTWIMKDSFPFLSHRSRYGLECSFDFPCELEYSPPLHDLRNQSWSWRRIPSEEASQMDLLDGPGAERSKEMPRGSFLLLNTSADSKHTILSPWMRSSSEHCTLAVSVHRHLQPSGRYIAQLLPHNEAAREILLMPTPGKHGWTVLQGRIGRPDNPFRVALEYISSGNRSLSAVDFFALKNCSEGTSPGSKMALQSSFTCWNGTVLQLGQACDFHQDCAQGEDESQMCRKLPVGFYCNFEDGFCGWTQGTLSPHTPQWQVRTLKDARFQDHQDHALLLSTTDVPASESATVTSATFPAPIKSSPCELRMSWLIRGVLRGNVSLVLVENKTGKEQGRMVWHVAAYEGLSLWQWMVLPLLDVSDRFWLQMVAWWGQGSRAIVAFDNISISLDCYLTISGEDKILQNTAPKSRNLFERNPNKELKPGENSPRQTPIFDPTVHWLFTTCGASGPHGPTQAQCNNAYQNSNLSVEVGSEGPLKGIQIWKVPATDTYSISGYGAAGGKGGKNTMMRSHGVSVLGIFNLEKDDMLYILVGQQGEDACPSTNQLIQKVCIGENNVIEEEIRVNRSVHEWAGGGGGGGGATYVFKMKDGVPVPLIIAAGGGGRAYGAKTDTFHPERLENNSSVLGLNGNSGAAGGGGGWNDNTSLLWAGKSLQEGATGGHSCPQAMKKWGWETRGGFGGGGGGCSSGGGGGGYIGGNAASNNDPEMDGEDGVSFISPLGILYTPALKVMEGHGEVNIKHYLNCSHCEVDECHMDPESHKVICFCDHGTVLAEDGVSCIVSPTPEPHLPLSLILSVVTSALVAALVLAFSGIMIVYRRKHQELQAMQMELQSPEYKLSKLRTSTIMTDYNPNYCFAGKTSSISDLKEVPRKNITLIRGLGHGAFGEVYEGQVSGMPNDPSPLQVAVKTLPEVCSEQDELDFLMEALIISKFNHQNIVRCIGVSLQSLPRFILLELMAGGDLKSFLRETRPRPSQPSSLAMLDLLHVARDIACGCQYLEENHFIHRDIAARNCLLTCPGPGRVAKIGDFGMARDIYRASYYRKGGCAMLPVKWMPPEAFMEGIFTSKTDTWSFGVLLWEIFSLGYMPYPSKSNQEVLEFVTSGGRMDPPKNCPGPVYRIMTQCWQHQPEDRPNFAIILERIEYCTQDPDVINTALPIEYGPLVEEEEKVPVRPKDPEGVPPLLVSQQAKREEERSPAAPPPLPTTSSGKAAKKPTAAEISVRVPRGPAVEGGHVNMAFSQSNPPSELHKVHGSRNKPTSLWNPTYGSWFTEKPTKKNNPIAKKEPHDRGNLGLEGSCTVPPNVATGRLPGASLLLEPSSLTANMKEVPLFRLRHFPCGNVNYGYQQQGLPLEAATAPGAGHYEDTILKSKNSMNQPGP

IC50 (ALK; [1]): > 10000 nM | IC50 (JAK2; [2]): < 100 nM
Molecule: Cn1cnc2cc(Nc3ncc4ccc(-c5cccc(S(=O)(=O)NC(C)(C)C)c5)n4n3)ccc21 [Example 1332, N-tert-Butyl-3-[2-(1-methyl-1H-benzimidazol-5-ylamino)-pyrrolo[2,1-f][1,2,4]triazin-7-yl]-benzenesulfonamide]

IC50 (ALK; ALK Kinase Inhibition): 1000 to 10000 nM | IC50 (JAK2; JAK2 Kinase Inhibition): < 100 nM
Molecule: CC(=O)Nc1cccc(Nc2ncc3ccc(-c4cnn(C)c4)n3n2)c1 [Example 1378, N-{3-[7-(1-Methyl-1H-pyrazol-4-yl)-pyrrolo[2,1-f][1,2,4]triazin-2-ylamino]-phenyl}-acetamide]

IC50 (ALK; [1]): < 100 nM | IC50 (JAK2; [2]): 100 to 1000 nM
Molecule: COc1cc(CN2CCC(O)CC2)ccc1Nc1ncc2ccc(-c3ccccc3OC)n2n1 [Example 1235, 1-{3-Methoxy-4-[7-(2-methoxy-phenyl)-pyrrolo[2,1-f][1,2,4]triazin-2-ylamino]-benzyl}-piperidin-4-ol]

IC50 (ALK; ALK Kinase Inhibition): 1000 to 10000 nM | IC50 (JAK2; JAK2 Kinase Inhibition): < 100 nM
Molecule: COc1ccc(-c2ccc3cnc(Nc4cccc(C5CN(C)CCN5C)c4)nn23)cn1 (stereo not shown) [Example 1519, [3-(1,4-Dimethyl-piperazin-2-yl)-phenyl]-[7-(6-methoxy-pyridin-3-yl)-pyrrolo[2,1-f][1,2,4]triazin-2-yl]-amine]

IC50 (ALK; ALK Kinase Inhibition): 1000 to 10000 nM | IC50 (JAK2; JAK2 Kinase Inhibition): < 100 nM
Molecule: COCC(C)OC(=O)COc1ccccc1-c1ccc2cnc(Nc3ccc(N4CCN(C)CC4)c(F)c3)nn12 (stereo not shown) [Example 1397, (2-{2-[3-Fluoro-4-(4-methyl-piperazin-1-yl)-phenylamino]-pyrrolo[2,1-f][1,2,4]triazin-7-yl}-phenoxy)-acetic acid 2-methoxy-1-methyl-ethyl ester]

IC50 (ALK; [1]): 100 to 1000 nM | IC50 (JAK2; [2]): < 100 nM
Molecule: COc1ccncc1-c1ccc2cnc(Nc3ccc(N4CCN(C)CC4)cc3)nn12 [Example 1210, [7-(4-Methoxy-pyridin-3-yl)-pyrrolo[2,1-f][1,2,4]triazin-2-yl]-[4-(4-methyl-piperazin-1-yl)-phenyl]-amine]

IC50 (ALK; ALK Kinase Inhibition): 100 to 1000 nM | IC50 (JAK2; JAK2 Kinase Inhibition): 100 to 1000 nM
Molecule: COCCN(c1ccccc1-c1ccc2cnc(Nc3ccc(N4CCC(N5CCOCC5)CC4)cc3OC)nn12)S(C)(=O)=O [Example 1462, N-(2-Methoxy-ethyl)-N-(2-{2-[2-methoxy-4-(4-morpholin-4-yl-piperidin-1-yl)-phenylamino]-pyrrolo[2,1-f][1,2,4]triazin-7-yl}-phenyl)-methanesulfonamide]

IC50 (ALK; [1]): > 10000 nM | IC50 (JAK2; [2]): 1000 to 10000 nM
Molecule: CN(c1ccccc1-c1ccc2cnc(OCCN3CCN(c4ccc(N)cc4)CC3)nn12)S(C)(=O)=O [Example 1172, N-[2-(2-{2-[4-(4-Amino-phenyl)-piperazin-1-yl]-ethoxy}-pyrrolo[2,1-f][1,2,4]triazin-7-yl)-phenyl]-N-methyl-methanesulfonamide]

IC50 (ALK; [1]): 1000 to 10000 nM | IC50 (JAK2; [2]): < 100 nM
Molecule: CC(C)(C)NS(=O)(=O)c1cccc(-c2ccc3cnc(Nc4ccc5[nH]ncc5c4)nn23)c1 [Example 1315, N-tert-Butyl-3-[2-(1H-indazol-5-ylamino)-pyrrolo[2,1-f][1,2,4]triazin-7-yl]-benzenesulfonamide]

IC50 (ALK; [1]): < 100 nM | IC50 (JAK2; [2]): 100 to 1000 nM
Molecule: COc1cc(CN2C[C@@H](O)[C@H](O)C2)ccc1Nc1ncc2ccc(-c3ccccc3OC)n2n1 [Example 1237, (3R,4R)-1-{3-Methoxy-4-[7-(2-methoxy-phenyl)-pyrrolo[2,1-f][1,2,4]triazin-2-ylamino]-benzyl}-pyrrolidine-3,4-diol]

IC50 (ALK; ALK Kinase Inhibition): 100 to 1000 nM | IC50 (JAK2; JAK2 Kinase Inhibition): < 100 nM
Molecule: CS(=O)(=O)c1cccc(-c2ccc3cnc(Nc4cccc(C5(O)CCNCC5)c4)nn23)c1 [Example 1552, 4-{3-[7-(3-Methanesulfonyl-phenyl)-pyrrolo[2,1-f][1,2,4]triazin-2-ylamino]-phenyl}-piperidin-4-ol]

More lines, now with the values behind:

Molecule: CC(C)(C)OCc1cccc(-c2ccc3cnc(Nc4cccc(N5CCOCC5)c4)nn23)c1 [Example 1560, [7-(3-tert-Butoxymethyl-phenyl)-pyrrolo[2,1-f][1,2,4]triazin-2-yl]-(3-morpholin-4-yl-phenyl)-amine]
IC50 (ALK; ALK Kinase Inhibition): > 10000 nM | IC50 (JAK2; JAK2 Kinase Inhibition): < 100 nM

Molecule: CC(=O)Nc1cccc(Nc2ncc3ccc(-c4cccc(C(=O)NC(C)(C)C)c4)n3n2)c1 [Example 886, 3-[2-(3-Acetylamino-phenylamino)-pyrrolo[2,1-f][1,2,4]triazin-7-yl]-N-tert-butyl-benzamide]
IC50 (ALK; [1]): 1000 to 10000 nM | IC50 (JAK2; [2]): < 100 nM

Molecule: NC(=O)CN1CCC(c2ccc(Nc3ncc4ccc(-c5cccc(CO)c5)n4n3)cc2)CC1 [Example 1065, 2-(4-{4-[7-(3-Hydroxymethyl-phenyl)-pyrrolo[2,1-f][1,2,4]triazin-2-ylamino]-phenyl}-piperidin-1-yl)-acetamide]
IC50 (ALK; [1]): 100 to 1000 nM | IC50 (JAK2; [2]): < 100 nM

Molecule: O=C(c1ccc(Nc2ncc3ccc(-c4cccc(Cl)c4)n3n2)cc1)N1CCOCC1 [Example 316, {4-[7-(3-Chloro-phenyl)-pyrrolo[2,1-f][1,2,4]triazin-2-ylamino]-phenyl}-morpholin-4-yl-methanone]
IC50 (ALK; ALK Kinase Inhibition): 100 to 1000 nM | IC50 (JAK2; JAK2 Kinase Inhibition): < 100 nM

Molecule: COc1c(Nc2ncc3ccc(-c4ccccc4N(C)S(C)(=O)=O)n3n2)cccc1C1CCN(C)CC1 [Example 776, N-(2-{2-[2-Methoxy-3-(1-methyl-piperidin-4-yl)-phenylamino]-pyrrolo [2,1-f][1,2,4]triazin-7-yl}-phenyl)-N-methyl-methanesulfonamide]
IC50 (ALK; [1]): < 100 nM | IC50 (JAK2; [2]): < 100 nM

Molecule: COc1cc(-c2ccc3cnc(Nc4ccc(C5CN(CC(N)=O)C5)cc4)nn23)c(OC)nn1 [Example 581, 2-(3-{4-[7-(3,6-Dimethoxy-pyridazin-4-yl)-pyrrolo[2,1-f][1,2,4]triazin-2-ylamino]-phenyl}-azetidin-1-yl)-acetamide]
IC50 (ALK; [1]): 100 to 1000 nM | IC50 (JAK2; [2]): < 100 nM

Molecule: COc1ccccc1-c1cc(C#N)c2cnc(Nc3ccc(N4CCN(C)CC4)cc3)nn12 [Example 114, 7-(2-Methoxy-phenyl)-2-[4-(4-methyl-piperazin-1-yl)-phenylamino]-pyrrolo[2,1-f][1,2,4]triazine-5-carbonitrile]
IC50 (ALK; ALK Kinase Inhibition): 100 to 1000 nM | IC50 (JAK2; JAK2 Kinase Inhibition): < 100 nM

Molecule: COc1cc(N2CCC(N3CCOCC3)CC2)ccc1Nc1ncc2ccc(-c3cccc4cccnc34)n2n1 [Example 512, [2-Methoxy-4-(4-morpholin-4-yl-piperidin-1-yl)-phenyl]-(7-quinolin-8-yl-pyrrolo[2,1-f][1,2,4]triazin-2-yl)-amine]
IC50 (ALK; [1]): 100 to 1000 nM | IC50 (JAK2; [2]): 1000 to 10000 nM

Molecule: CN1CCN(c2cccc(Nc3ncc4ccc(-c5cnn(CCC#N)c5)n4n3)c2)CC1 [Example 977, 3-(4-{2-[3-(4-Methyl-piperazin-1-yl)-phenylamino]-pyrrolo[2,1-f][1,2,4]triazin-7-yl}-pyrazol-1-yl)-propionitrile]
IC50 (ALK; [1]): 100 to 1000 nM | IC50 (JAK2; [2]): < 100 nM

Molecule: COc1ccc(-c2ccc3cnc(Nc4cccc(NC(=O)[C@@H](C)OC)c4)nn23)cn1 [Example 900, (R)-2-Methoxy-N-{3-[7-(6-methoxy-pyridin-3-yl)-pyrrolo[2,1-f][1,2,4]triazin-2-ylamino]-phenyl}-propionamide]
IC50 (ALK; [1]): 100 to 1000 nM | IC50 (JAK2; [2]): < 100 nM

Molecule: COc1cc(N2CCC(N(C)C)CC2)ccc1Nc1ncc2ccc(-c3ccccc3N(C)S(C)(=O)=O)n2n1 [Example 475, N-(2-{2-[4-(4-Dimethylamino-piperidin-1-yl)-2-methoxy-phenylamino]-pyrrolo[2,1-f][1,2,4]triazin-7-yl}-phenyl)-N-methyl-methanesulfonamide]
IC50 (ALK; [1]): < 100 nM | IC50 (JAK2; [2]): 100 to 1000 nM

Molecule: COc1ccccc1-c1ccn2nc(Nc3ccc4c(c3)CN(C)CC4)ncc12 [Example 722, [5-(2-Methoxy-phenyl)-pyrrolo[2,1-f][1,2,4]triazin-2-yl]-(2-methyl-1,2,3,4-tetrahydro-isoquinolin-7-yl)-amine]
IC50 (ALK; [1]): > 10000 nM | IC50 (JAK2; [2]): 1000 to 10000 nM

Molecule: CN1CCN(c2ccc(Nc3ncc4ccc(Nc5ccccc5)n4n3)cc2)CC1 [Example 24, N(2)-[4-(4-Methyl-piperazin-1-yl)-phenyl]-N(7)-phenyl-pyrrolo[2,1-f][1,2,4]triazine-2,7-diamine]
IC50 (ALK; ALK Kinase Inhibition): 1000 to 10000 nM | IC50 (JAK2; JAK2 Kinase Inhibition): < 100 nM

Molecule: Cn1cc(-c2ccc3cnc(Nc4cccc(OCCN5CCOCC5)c4)nn23)cn1 [Example 1004, [7-(1-Methyl-1H-pyrazol-4-yl)-pyrrolo[2,1-f][1,2,4]triazin-2-yl]-[3-(2-morpholin-4-yl-ethoxy)-phenyl]-amine]
IC50 (ALK; [1]): 1000 to 10000 nM | IC50 (JAK2; [2]): < 100 nM

Molecule: [4-(4-Diethylamino-piperidin-1-yl)-phenyl]-[7-(4-methanesulfonyl-phenyl)-pyrrolo[2,1-f][1,2,4]triazin-2-yl]-amine [Example 1136]
IC50 (ALK; [1]): 100 to 1000 nM | IC50 (JAK2; [2]): < 100 nM

Molecule: COc1ccc2c(c1)cc1cnc(Nc3ccc(N4CCOCC4)cc3OC)nn12 [Example 269, (2-Methoxy-4-morpholin-4-yl-phenyl)-(7-methoxy-[1,2,4]triazino[1,6-a]indol-2-yl)-amine]
IC50 (ALK; ALK Kinase Inhibition): 1000 to 10000 nM | IC50 (JAK2; JAK2 Kinase Inhibition): 1000 to 10000 nM

Molecule: CN1CCN(C(=O)C2CCCN(c3ccc(Nc4ncc5ccc(-c6ccccc6N(C)S(C)(=O)=O)n5n4)cc3)C2)CC1 (stereo not shown) [Example 447, N-Methyl-N-[2-(2-{4-[3-(4-methyl-piperazine-1-carbonyl)-piperidin-1-yl]-phenylamino}-pyrrolo[2,1-f][1,2,4]triazin-7-yl)-phenyl]-methanesulfonamide]
IC50 (ALK; ALK Kinase Inhibition): < 100 nM | IC50 (JAK2; JAK2 Kinase Inhibition): < 100 nM

Molecule: CN(c1ccccc1-c1ccc2cnc(Nc3ccc(-c4cccnc4)cc3)nn12)S(C)(=O)=O [Example 1092, N-Methyl-N-{2-[2-(4-pyridin-3-yl-phenylamino)-pyrrolo[2,1-f][1,2,4]triazin-7-yl]-phenyl}-methanesulfonamide]
IC50 (ALK; [1]): 100 to 1000 nM | IC50 (JAK2; [2]): < 100 nM

— patent US8471005B2 (Cephalon, Inc., priority 2008, dated 2013)
